pIC50: −log10 of the molar value.

For this experiment, the target named is human Nav1.8 (Homo sapiens, UniProt Q9Y5Y9). Kind of experiment: Sophion Qpatch II assay (automated patch clamp). Particulars: resting state block (TP1 measurement), human Nav1.8 HEK293 cells, read-out: P1 IC50. The class given is cell-based. As to the method: Compounds were tested on recombinant human Nav1.8/01 stably transfected HEK293 (Eurofins, CYL3025, St. Charles, MO) cells using the Qpatch II system (Sophion Bioscience A/S, Ballerup—Denmark), an automated patch clamp device. Cells were cultured at 37° C./5% CO2 in DMEM/F-12 supplemented with 10% fetal bovine serum, lx Non-Essential Amino Acids, and selection antibiotics (0.625 μg/mL Puromycin, 400 μg/mL Geneticin, and 100 μg/mL Hygromycin). One or two days prior to recording, cells were moved to a lower temperature 30° C./5% CO2 incubator to increase surface expression of the channels. On the day of the recordings, cells in culture dishes were washed twice with Ca^2+—Mg^2+ free DPBS and treated with Detachin (Genlantis, San Diego) for 3 minutes and then resuspended in Serum Free Medium (EX-CELL® ACF CHO Medium for Cell Culture (Sigma-Aldrich) supplemented with 0.04 mg/mL soybean trypsin Inhibitor and 25 mM HEPES (all components supplied by Sigma-Aldrich, St. Louis, MO) and allowed to recover for a minimum of 20 minutes in the onboard Qstirrer. All experiments were performed at ambient temperature. Intracellular solution contained (mM): CsCl, 50; CsF, 90; MgCl2, 2; EGTA, 5; HEPES, 10; pH adjusted to 7.2 with CsOH. Extracellular solution contained (mM): NaCl, 137; KCl, 4; CaCl2), 3.8; MgCl2, 1; HEPES, 10; Glucose, 10; pH adjusted to 7.4 with NaOH. 500 nM tetrodotoxin (TTX) was added to the extracellular solution to block endogenous TTX-sensitive sodium currents.
Chain of human Nav1.8 (Q9Y5Y9 whole entry): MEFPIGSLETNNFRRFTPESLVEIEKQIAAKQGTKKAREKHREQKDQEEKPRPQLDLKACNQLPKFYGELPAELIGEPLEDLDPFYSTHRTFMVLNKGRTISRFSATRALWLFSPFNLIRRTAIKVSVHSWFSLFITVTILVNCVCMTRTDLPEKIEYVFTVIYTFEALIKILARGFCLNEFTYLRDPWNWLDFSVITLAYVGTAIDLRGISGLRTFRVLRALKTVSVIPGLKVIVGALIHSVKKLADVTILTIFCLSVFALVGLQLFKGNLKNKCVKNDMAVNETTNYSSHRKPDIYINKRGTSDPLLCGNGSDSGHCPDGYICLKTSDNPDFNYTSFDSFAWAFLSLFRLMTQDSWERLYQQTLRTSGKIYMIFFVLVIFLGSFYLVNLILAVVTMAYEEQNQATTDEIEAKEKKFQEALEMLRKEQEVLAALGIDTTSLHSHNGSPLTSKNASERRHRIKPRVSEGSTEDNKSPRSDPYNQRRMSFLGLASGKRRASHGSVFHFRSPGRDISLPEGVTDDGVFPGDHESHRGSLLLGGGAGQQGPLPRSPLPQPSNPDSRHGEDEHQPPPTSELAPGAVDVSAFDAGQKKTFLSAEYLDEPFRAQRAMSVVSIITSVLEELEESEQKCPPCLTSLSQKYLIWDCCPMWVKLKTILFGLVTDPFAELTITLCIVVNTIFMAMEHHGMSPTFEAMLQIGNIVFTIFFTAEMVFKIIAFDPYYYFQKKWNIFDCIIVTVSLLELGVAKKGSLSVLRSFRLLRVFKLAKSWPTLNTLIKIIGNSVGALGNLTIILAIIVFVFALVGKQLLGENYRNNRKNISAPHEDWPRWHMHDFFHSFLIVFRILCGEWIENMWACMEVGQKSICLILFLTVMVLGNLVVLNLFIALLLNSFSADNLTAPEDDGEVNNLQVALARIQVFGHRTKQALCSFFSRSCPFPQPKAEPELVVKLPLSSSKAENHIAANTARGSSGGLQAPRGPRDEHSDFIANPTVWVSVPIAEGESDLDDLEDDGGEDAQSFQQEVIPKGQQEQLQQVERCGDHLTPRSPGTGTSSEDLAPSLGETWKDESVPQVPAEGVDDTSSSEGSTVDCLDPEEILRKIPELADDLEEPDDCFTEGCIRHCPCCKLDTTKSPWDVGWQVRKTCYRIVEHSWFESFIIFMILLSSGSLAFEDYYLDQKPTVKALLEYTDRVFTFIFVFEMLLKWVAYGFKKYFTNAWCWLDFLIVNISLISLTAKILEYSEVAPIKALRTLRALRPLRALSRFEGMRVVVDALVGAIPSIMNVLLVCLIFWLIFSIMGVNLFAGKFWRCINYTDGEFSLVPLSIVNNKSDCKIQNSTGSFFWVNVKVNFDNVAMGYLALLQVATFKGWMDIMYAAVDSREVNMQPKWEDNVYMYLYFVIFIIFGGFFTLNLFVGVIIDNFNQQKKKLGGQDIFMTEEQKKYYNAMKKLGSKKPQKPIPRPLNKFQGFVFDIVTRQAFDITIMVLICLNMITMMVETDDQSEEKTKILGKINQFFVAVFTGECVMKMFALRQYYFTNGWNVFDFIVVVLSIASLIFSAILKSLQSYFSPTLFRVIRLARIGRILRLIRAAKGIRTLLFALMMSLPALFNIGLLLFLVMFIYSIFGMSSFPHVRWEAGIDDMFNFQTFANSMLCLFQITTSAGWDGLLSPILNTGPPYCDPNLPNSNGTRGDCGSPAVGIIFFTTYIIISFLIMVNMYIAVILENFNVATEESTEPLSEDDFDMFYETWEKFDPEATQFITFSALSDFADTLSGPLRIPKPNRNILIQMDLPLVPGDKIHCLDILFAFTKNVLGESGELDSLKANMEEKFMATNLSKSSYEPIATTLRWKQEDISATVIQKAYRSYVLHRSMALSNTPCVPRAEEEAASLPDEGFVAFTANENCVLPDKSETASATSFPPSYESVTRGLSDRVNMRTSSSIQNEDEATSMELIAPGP
Compounds were tested in an interleaved manner across two cohorts of wells to develop an aggregate 8-point concentration response curve. Final concentrations include 0.5% DMSO and 0.03% pluronic Acid. The concentration range spanned a range from 0.01-300 nM. Compounds were diluted 1:10 with extracellular solution within their respective cohort. (R)-2-(4-fluoro-2-methylphenoxy)-N-(3-(S-methylsulfonimidoyl)phenyl)-5-(trifluoromethyl)nicotinamide served as a positive control while DMSO (0.5% by volume) served as a vehicle control to ascertain assay performance.
Whole cell patch clamp recordings were conducted according to Sophion standard procedure for Qpatch II®. Cells were held at a holding potential of −120 mV. A depolarizing step to 10 mV for 30 ms was applied (TP1 measurement), followed by a hyperpolarization step to −100 mV for 20 ms. Due to instability observed at long depolarized potentials, there were no second TP2 measurements attempted. Inter-sweep interval was 15 sec. Following establishment of the whole-cell configuration in extracellular solution, cells were washed twice in extracellular solution containing 0.5% DMSO and 0.03% pluronic acid to stabilize the baseline current. Compounds were then applied by the Qpatch II system into each well in an ascending manner within cohort and the current was recorded for five minutes for each concentration. Percent of current remaining was determined by taking the average of the last 5 sweeps within each concentration and normalizing to the latest pre-compound saline period. The potency of the compounds was assessed on resting state block (TP1 measurement) only to obtain IC50 values. Wells whose initial sodium current magnitude were below 2 nA or whole cell resistance fell below 100 MQ were excluded from analysis.
Examples 220 to 224, Examples 237 to 257 and Example 259 are assayed using Sophion Qpatch II assay described above.
`C[S@](=N)(=O)c1cccc(NC(=O)c2cc(Cl)c(C(F)(F)F)cc2N2CCC(F)(F)CC2)c1` [Example 255, (S)-5-chloro-2-(4,4-difluoropiperidin-1-yl)-N-(3-(S-methylsulfonimidoyl)phenyl)-4-(trifluoromethyl)benzamide]: the pIC50 is 7.30 to 8.30.
The result for `Cc1c(C(F)(F)F)cnc(N2CCCC(F)(F)CC2)c1C(=O)N[C@H]1C[C@H](C(N)=O)C1` [Example 257, N-((trans)-3-carbamoylcyclobutyl)-2-(4,4-difluoroazepan-1-yl)-4-methyl-5-(trifluoromethyl)nicotinamide] reads 7.00 to 7.30.
The result for `NC(=O)[C@H]1C[C@H](NC(=O)c2cc(Cl)c(C(F)(F)F)cc2N2CCCC(F)(F)CC2)C1` [Example 252, N-((trans)-3-carbamoylcyclobutyl)-5-chloro-2-(4,4-difluoroazepan-1-yl)-4-(trifluoromethyl)benzamide] reads 7.00 to 7.30.
For the compound `Cc1c(C(=O)Nc2ccnc([S@@](C)(=N)=O)c2)c(N2CCCC(F)(F)CC2)nc(C2CC2)c1C(F)(F)F` [Example 221, (S)-6-cyclopropyl-2-(4,4-difluoroazepan-1-yl)-4-methyl-N-(2-(S-methylsulfonimidoyl)pyridin-4-yl)-5-(trifluoromethyl)nicotinamide], the pIC50 is 7.30 to 8.30.
As for `Cc1c(C(F)(F)F)cnc(N2CCO[C@H](C(F)(F)F)C2)c1C(=O)Nc1cccc([S@](C)(=N)=O)c1` [Example 240, 4-methyl-N-(3-((R)—S-methylsulfonimidoyl)phenyl)-5-(trifluoromethyl)-2-((S)-2-(trifluoromethyl)morpholino)nicotinamide], the figure is 7.30 to 8.30; as for `Cc1c(C(F)(F)F)cnc(N2CCC(C(F)(F)F)CC2)c1C(=O)Nc1cccc([S@](C)(=N)=O)c1` [Example 242, (R)-4-methyl-N-(3-(S-methylsulfonimidoyl)phenyl)-5-(trifluoromethyl)-2-(4-(trifluoromethyl)piperidin-1-yl)nicotinamide], 7.30 to 8.30.
As to `Cc1c(C(=O)Nc2cccc([S@@](C)(=N)=O)c2)c(N2CCCC(F)(F)CC2)nc(C2CC2)c1C(F)(F)F` [Example 223, (S)-6-cyclopropyl-2-(4,4-difluoroazepan-1-yl)-4-methyl-N-(3-(S-methylsulfonimidoyl)phenyl)-5-(trifluoromethyl)nicotinamide], the pIC50 was ≥ 8.30.
The result for `Cc1c(C(=O)Nc2cccc([S@](C)(=N)=O)c2)c(N2CCCC(F)(F)CC2)nc(C2CC2)c1C(F)(F)F` [Example 224, (R)-6-cyclopropyl-2-(4,4-difluoroazepan-1-yl)-4-methyl-N-(3-(S-methylsulfonimidoyl)phenyl)-5-(trifluoromethyl)nicotinamide] reads 7.30 to 8.30.
Regarding `C[S@](=N)(=O)c1cccc(NC(=O)c2cc(Cl)c(C(F)(F)F)cc2N2CCC(C(F)(F)F)CC2)c1` [Example 251, (S)-5-chloro-N-(3-(S-methylsulfonimidoyl)phenyl)-4-(trifluoromethyl)-2-(4-(trifluoromethyl)piperidin-1-yl)benzamide], the pIC50 is 7.00 to 7.30.
Regarding `Cc1c(C(F)(F)F)cnc(N2CCO[C@@H](C(F)(F)F)C2)c1C(=O)Nc1ccnc([S@](C)(=N)=O)c1` [Example 239, 4-methyl-N-(2-((R)—S-methylsulfonimidoyl)pyridin-4-yl)-5-(trifluoromethyl)-2-((R)-2-(trifluoromethyl)morpholino)nicotinamide], the pIC50 was < 6.70.
As for `C[S@@](=N)(=O)c1cc(NC(=O)c2cc(Cl)c(C(F)(F)F)cc2N2CCC(F)(F)CC2)ccn1` [Example 248, (R)-5-chloro-2-(4,4-difluoropiperidin-1-yl)-N-(2-(S-methylsulfonimidoyl)pyridin-4-yl)-4-(trifluoromethyl)benzamide], the figure is 7.00 to 7.30.
In the case of `C[S@@](=N)(=O)c1cccc(NC(=O)c2cc(Cl)c(C(F)(F)F)cc2N2CCC(F)(F)CC2)c1` [Example 222, (R)-5-chloro-2-(4,4-difluoropiperidin-1-yl)-N-(3-(S-methylsulfonimidoyl)phenyl)-4-(trifluoromethyl)benzamide], the pIC50 is 7.30 to 8.30.
The result for `C[S@](=N)(=O)c1cc(NC(=O)c2cc(Cl)c(C(F)(F)F)cc2N2CCC(C(F)(F)F)CC2)ccc1F` [Example 246, (S)-5-chloro-N-(4-fluoro-3-(S-methylsulfonimidoyl)phenyl)-4-(trifluoromethyl)-2-(4-(trifluoromethyl)piperidin-1-yl)benzamide] reads 7.00 to 7.30; that for `Cc1c(C(F)(F)F)cnc(N2CCCC(F)(F)CC2)c1C(=O)N[C@H]1C[C@H](C(=O)O)C1` [Example 256, (trans)-3-(2-(4,4-difluoroazepan-1-yl)-4-methyl-5-(trifluoromethyl)nicotinamido)cyclobutane-1-carboxylic acid], 7.00 to 7.30.
Take `C[S@@](=N)(=O)c1cc(NC(=O)c2cc(Cl)c(C(F)(F)F)cc2N2CCC(C(F)(F)F)CC2)ccn1` [Example 243, (R)-5-chloro-N-(2-(S-methylsulfonimidoyl)pyridin-4-yl)-4-(trifluoromethyl)-2-(4-(trifluoromethyl)piperidin-1-yl)benzamide]: the pIC50 was 7.00 to 7.30.
As for `Cc1c(C(=O)Nc2ccnc([S@](C)(=N)=O)c2)c(N2CCCC(F)(F)CC2)cc(C2CC2)c1C(F)(F)F` [Example 250, (R)-4-cyclopropyl-6-(4,4-difluoroazepan-1-yl)-2-methyl-N-(2-(S-methylsulfonimidoyl)pyridin-4-yl)-3-(trifluoromethyl)benzamide], the figure is ≥ 8.30; as for `C[S@](=N)(=O)c1cc(NC(=O)c2cc(Cl)c(C(F)(F)F)cc2N2CCC(C(F)(F)F)CC2)ccn1` [Example 244, (S)-5-chloro-N-(2-(S-methylsulfonimidoyl)pyridin-4-yl)-4-(trifluoromethyl)-2-(4-(trifluoromethyl)piperidin-1-yl)benzamide], 7.00 to 7.30.
As for `Cc1c(C(F)(F)F)cnc(N2CCCC(F)(F)CC2)c1C(=O)N[C@H]1C[C@@H](C(N)=O)C1` [Example 259, N-((cis)-3-carbamoylcyclobutyl)-2-(4,4-difluoroazepan-1-yl)-4-methyl-5-(trifluoromethyl)nicotinamide], the figure is 7.00 to 7.30.
The result for `Cc1c(C(=O)Nc2ccnc([S@](C)(=N)=O)c2)c(N2CCCC(F)(F)CC2)nc(C2CC2)c1C(F)(F)F` [Example 220, (R)-6-cyclopropyl-2-(4,4-difluoroazepan-1-yl)-4-methyl-N-(2-(S-methylsulfonimidoyl)pyridin-4-yl)-5-(trifluoromethyl)nicotinamide] reads 7.30 to 8.30; that for `C[S@](=N)(=O)c1cc(NC(=O)c2cc(Cl)c(C(F)(F)F)cc2N2CCC(F)(F)CC2)ccn1` [Example 247, (S)-5-chloro-2-(4,4-difluoropiperidin-1-yl)-N-(2-(S-methylsulfonimidoyl)pyridin-4-yl)-4-(trifluoromethyl)benzamide], 6.70 to 7.00.
With `C[S@@](=N)(=O)c1cc(NC(=O)c2cc(Cl)c(C(F)(F)F)cc2N2CCC(F)(F)CC2)ccc1F` [Example 254, (R)-5-chloro-2-(4,4-difluoropiperidin-1-yl)-N-(4-fluoro-3-(S-methylsulfonimidoyl)phenyl)-4-(trifluoromethyl)benzamide], the negative logarithm of the IC50 (pIC50) is 7.30 to 8.30.
The result for `Cc1c(C(F)(F)F)cnc(N2CCO[C@@H](C(F)(F)F)C2)c1C(=O)Nc1cccc([S@](C)(=N)=O)c1` [Example 238, 4-methyl-N-(3-((R)—S-methylsulfonimidoyl)phenyl)-5-(trifluoromethyl)-2-((R)-2-(trifluoromethyl)morpholino)nicotinamide] reads < 6.70; that for `C[S@](=N)(=O)c1cc(NC(=O)c2cc(Cl)c(C(F)(F)F)cc2N2CCC(F)(F)CC2)ccc1F` [Example 249, (S)-5-chloro-2-(4,4-difluoropiperidin-1-yl)-N-(4-fluoro-3-(S-methylsulfonimidoyl)phenyl)-4-(trifluoromethyl)benzamide], 7.00 to 7.30.

Broadly, the pIC50 is −log10 of the IC50, conventionally taken in molar units.

For the origin of these results see patent US20250154109A1, “SODIUM CHANNEL BLOCKING COMPOUNDS, DERIVATIVES THEREOF, AND METHODS OF THEIR USE” (LATIGO BIOTHERAPEUTICS, INC, priority 2022, published 2025).
